Measured values published in patent US20250109127A1, “METHODS OF USE OF PHENOXYPROPYLAMINE COMPOUNDS TO TREAT DEPRESSION” (Minerva Neurosciences, Inc., priority 2013, published 2025).
“And” between values parts separate entries of the source, which are not always exact repeats. Identical values can stand only once. Counter-ions that a name gives are not always drawn.

Test system: DOPAC release in the rat prefrontal cortex
Experiment: Microdialysis: DOPAC release in prefrontal cortex after I.P. administration
Format: in vivo
Conditions: for DOPAC (% of respective basal), individual animal: 0.1 mg/kg I.P., c2-c9 = R#13,14,20,19,25,26,31,32; for DOPAC (% of respective basal), individual animal / DOPAC release, individual animals: hydrochloride; for DOPAC release, MEAN / DOPAC release, individual animals: 3 mg/kg IP; for DOPAC release, MEAN: n = 8; for DOPAC release, individual animals: per animal R#15,16,21,22,27,28,09,10
Protocol: The aim of the study was to evaluate, using microdialysis, the effects of an intraperitoneal (I.P.) administration in rats of three different doses of SON-117 on dopamine and its metabolites, serotonin and its metabolite (5-HIAA), and norepinephrine levels in prefrontal cortex.
Thirty-two adult male Wistar rats were used for the whole study (4 groups of eight animals planned for the study, Table 1).
Surgery was performed on rats weighing about 300 g at the beginning of the experiments. Rats were anaesthetized with Ketamine (50 mg/kg) & Xylazine (15 mg/kg) by intramuscular administration. The animals were placed in a stereotaxic apparatus in the flat-skull position at a constant setting of −3.3 mm between ear bars and the incisor bar. The animals were treated with a local anesthesic (xylocaine 1%, Astra Zeneca) and an analgesic (Temgesic, from Schering Plough, 0.05 mg/kg, s.c.). A rostrocaudal midline incision was made with a lancet to expose the dorsal skull surface. The “stereotaxic zero” was defined by the Bregma in accordance with Paxinos and Watson's atlas (1986). A hole was drilled in the skull with a drill and the meninges were pierced with a sterile needle to implant a CMA12 guide cannula which later received the dialysis probe.
Coordinates used for implanting guide cannula in prefrontal cortex from Bregma were anteroposterior 3.7 mm, mediolateral 0.8 mm, and dorsoventral −2 mm (top of the probe was at −5 mm). The guide cannula was fixed to the skull with two stainless steel screws (1.88 mm outside diameter) anchored. An application of dental cement was added. A plastic collar allowed each animal to be tethered to a Swivel assembly of the CMA 120 awake animal system. Following surgery, rats were kept in individual cages and allowed to recover for a minimum of 3-5 days before the experimentation. The rats were handled and put in plastic bowl for 10 min at least every day to habituate the animals to their new environment for the dialysis. An I.P. administration with saline was also performed every day.
Dialysis probes (CMA12/3 mm, membrane, 20 kD cut-off, Carnegie Medicine, Stockholm, Sweden), were carefully washed before inserting into the guide cannula. The wash was performed with the artificial cerebrospinal fluid (aCSF) medium (NaCl 147 mM, KCl 2.7 mM, CaCl2 1.2 mM, MgCl2 0.85 mM) at room temperature. The dialysis system was then equilibrated at 20° C. at a perfusion rate of 1 μl/min with a Carnegie pump (CMA100). All catheters (FEP tubing, internal volume of 1.2 μl/10 cm, and tubing adaptors) used for microdialysis were treated in the same conditions.
The probes duly prepared were inserted into the guide cannula and the CMA120 Swivel assembly secured to the animal using a plastic collar. Flow through the dialysis probe with aCSF was maintained at a rate of 1 μl/min during the whole experimentation. The first four fractions (corresponding to 2 hours) were discarded to avoid the effects of parenchymal disturbance and to ensure that an approximate steady-state level was reached. Fractions were then collected over a period of 8.5 h during which time the animals remained quiet. The dialysates were automatically collected with an autosampler (microfraction collector CMA 140, Carnegie Medicin) and stored at −80° C. until analysis. […] Perfusion was then maintained for 7 hours with aCSF. The dialysates (30 μl) were collected into 300 μl vials, transferred into dry ice and then kept frozen (−80° C.) until analysis. Frozen samples were shipped to a partner for analysis. At the end of the microdialysis study, a PBS with colored ink was perfused through the probe in order to visualize the dialyzed area.
Catecholamine assay: Concentrations of dopamine, DOPAC, HVA, 5-HIAA, 5-HT, and norepinephrin were determined for each sample by HPLC coupled with electrochemical detection.

In the case of `Cc1nnc(-c2cc3c(OC[C@@H](O)CN4CCC(c5ccc(Cl)c(Cl)c5)CC4)cccc3o2)o1` [SON-117, (S)-1-(4-(3,4-dichlorophenyl)piperidino)-3-(2-(5-methyl-1,3,4-oxadiazol-2-yl)benzo(b)furan-4-yloxy)-2-propanol hydrochloride], the “DOPAC (% of respective basal), individual animal” value (“DOPAC (% of respective basal)” for short) (T30-T1 h) is reported as 90.11 % of respective basal and 105.88 % of respective basal and 110.45 % of respective basal and 113.21 % of respective basal and 95.59 % of respective basal and 110.39 % of respective basal and 128.2 % of respective basal and 82.35 % of respective basal, the “DOPAC (% of respective basal)” value (T1 h 30-T2 h) is reported as 101.64 % of respective basal and 109.71 % of respective basal and 83.87 % of respective basal and 449.73 % of respective basal and 128.96 % of respective basal and 72.88 % of respective basal and 153.26 % of respective basal and 56.49 % of respective basal and the “DOPAC (% of respective basal)” value (T1 h-T1 h 30) is reported as 79.47 % of respective basal and 158.61 % of respective basal and 92.14 % of respective basal and 126.98 % of respective basal and 119.92 % of respective basal and 119.37 % of respective basal and 135.5 % of respective basal and 66.42 % of respective basal. The “DOPAC (% of respective basal)” value (T2 h 30-T3 h) was 60.75 % of respective basal and 112.82 % of respective basal and 69.17 % of respective basal and 79.31 % of respective basal and 152.5 % of respective basal and 113.62 % of respective basal and 142.16 % of respective basal and 23.28 % of respective basal, the “DOPAC (% of respective basal)” value (T2 h-T2 h 30) was 176.59 % of respective basal and 43.90 % of respective basal and 80.18 % of respective basal and 123.61 % of respective basal and 132.53 % of respective basal and 78.83 % of respective basal and 142.03 % of respective basal and 39.56 % of respective basal and the “DOPAC (% of respective basal)” value (T3 h 30-T4 h) was 53.09 % of respective basal and 116.09 % of respective basal and 68.59 % of respective basal and 73.49 % of respective basal and 180.72 % of respective basal and 107.13 % of respective basal and 128.91 % of respective basal and 40.67 % of respective basal. For the same compound, the “DOPAC (% of respective basal)” value (T3 h-T3 h 30) was 80.45 % of respective basal and 87.7 % of respective basal and 65.69 % of respective basal and 75.20 % of respective basal and 134.32 % of respective basal and 93.13 % of respective basal and 140.15 % of respective basal and 50.88 % of respective basal, the “DOPAC (% of respective basal)” value (T4 h 30-T5 h) was 304.57 % of respective basal and 95.87 % of respective basal and 47.53 % of respective basal and 20.13 % of respective basal and 163.90 % of respective basal and 118.96 % of respective basal and 157.11 % of respective basal and 54.52 % of respective basal and the “DOPAC (% of respective basal)” value (T4 h-T4 h 30) was 345.4 % of respective basal and 109.04 % of respective basal and 79.96 % of respective basal and 110.35 % of respective basal and 164.47 % of respective basal and 110.81 % of respective basal and 148.54 % of respective basal and 71.60 % of respective basal. For the same compound, the “DOPAC (% of respective basal)” value (T5 h 30-T6 h) was 316.35 % of respective basal and 107.67 % of respective basal and 58.65 % of respective basal and 83.02 % of respective basal and 133.93 % of respective basal and 99.81 % of respective basal and 135.88 % of respective basal and 46.79 % of respective basal, the “DOPAC (% of respective basal)” value (T5 h-T5 h 30) was 342.56 % of respective basal and 121.60 % of respective basal and 61.68 % of respective basal and 79.4 % of respective basal and 139.09 % of respective basal and 96.46 % of respective basal and 144.84 % of respective basal and 50.64 % of respective basal and the “DOPAC (% of respective basal)” value (T6 h 30-T7 h) was 344.74 % of respective basal and 120.8 % of respective basal and 139.44 % of respective basal and 80.52 % of respective basal. For the same compound, the “DOPAC (% of respective basal)” value (T6 h-T6 h 30) was 362.18 % of respective basal and 142.01 % of respective basal and 23.55 % of respective basal and 82.92 % of respective basal and 136.09 % of respective basal and 101.05 % of respective basal and 125.76 % of respective basal and 48.95 % of respective basal, the “DOPAC release, MEAN” value (T0-T30 min) was 87.96 % of respective basal and the “DOPAC release, MEAN” value (T30-T1 h) was 90.03 % of respective basal. The “DOPAC release, individual animals” value (T30-T1 h) was 101.17 % of respective basal and 98.27 % of respective basal and 70.16 % of respective basal and 93.38 % of respective basal and 83.10 % of respective basal and 96.90 % of respective basal and 90.68 % of respective basal and 86.57 % of respective basal, the “DOPAC release, MEAN” value (T1 h 30-T2 h) was 109.73 % of respective basal and the “DOPAC release, individual animals” value (T1 h 30-T2 h) was 148.73 % of respective basal and 196.92 % of respective basal and 78.99 % of respective basal and 114.35 % of respective basal and 65.05 % of respective basal and 98.86 % of respective basal and 85.04 % of respective basal and 87.02 % of respective basal. The “DOPAC release, MEAN” value (T1 h-T1 h 30) was 107.74 % of respective basal, the “DOPAC release, individual animals” value (T1 h-T1 h 30) was 183.03 % of respective basal and 117.43 % of respective basal and 106.09 % of respective basal and 101.67 % of respective basal and 88.00 % of respective basal and 90.78 % of respective basal and 85.51 % of respective basal and 89.44 % of respective basal and the “DOPAC release, MEAN” value (T2 h 30-T3 h) was 92.73 % of respective basal. For the same compound, the “DOPAC release, individual animals” value (T2 h 30-T3 h) was 122.00 % of respective basal and 99.60 % of respective basal and 70.87 % of respective basal and 93.90 % of respective basal and 65.07 % of respective basal and 108.76 % of respective basal and 94.51 % of respective basal and 87.10 % of respective basal, the “DOPAC release, MEAN” value (T2 h-T2 h 30) was 95.46 % of respective basal and the “DOPAC release, individual animals” value (T2 h-T2 h 30) was 111.98 % of respective basal and 121.35 % of respective basal and 63.44 % of respective basal and 89.04 % of respective basal and 75.53 % of respective basal and 92.91 % of respective basal and 122.88 % of respective basal and 86.52 % of respective basal. The “DOPAC release, MEAN” value (T3 h 30-T4 h) was 94.20 % of respective basal, the “DOPAC release, individual animals” value (T3 h 30-T4 h) was 111.27 % of respective basal and 111.84 % of respective basal and 80.10 % of respective basal and 101.37 % of respective basal and 69.94 % of respective basal and 101.03 % of respective basal and 82.44 % of respective basal and 95.58 % of respective basal and the “DOPAC release, MEAN” value (T3 h-T3 h 30) was 102.63 % of respective basal. For the same compound, the “DOPAC release, individual animals” value (T3 h-T3 h 30) was 114.26 % of respective basal and 115.76 % of respective basal and 98.98 % of respective basal and 103.32 % of respective basal and 65.78 % of respective basal and 96.52 % of respective basal and 80.53 % of respective basal and 145.86 % of respective basal, the “DOPAC release, MEAN” value (T4 h 30-T5 h) was 90.86 % of respective basal and the “DOPAC release, individual animals” value (T4 h 30-T5 h) was 99.05 % of respective basal and 111.45 % of respective basal and 86.88 % of respective basal and 84.18 % of respective basal and 65.99 % of respective basal and 114.07 % of respective basal and 88.90 % of respective basal and 76.33 % of respective basal. For the same compound, the “DOPAC release, MEAN” value (T4 h-T4 h 30) was 97.50 % of respective basal, the “DOPAC release, individual animals” value (T4 h-T4 h 30) was 114.70 % of respective basal and 111.85 % of respective basal and 76.78 % of respective basal and 121.97 % of respective basal and 69.65 % of respective basal and 96.91 % of respective basal and 88.65 % of respective basal and 99.52 % of respective basal and the “DOPAC release, MEAN” value (T5 h 30-T6 h) was 93.52 % of respective basal. The “DOPAC release, individual animals” value (T5 h 30-T6 h) was 100.08 % of respective basal and 108.82 % of respective basal and 106.21 % of respective basal and 79.12 % of respective basal and 64.79 % of respective basal and 94.19 % of respective basal and 96.33 % of respective basal and 96.49 % of respective basal, the “DOPAC release, MEAN” value (T5 h-T5 h 30) was 105.66 % of respective basal and the “DOPAC release, individual animals” value (T5 h-T5 h 30) was 96.11 % of respective basal and 118.05 % of respective basal and 106.17 % of respective basal and 90.70 % of respective basal and 68.08 % of respective basal and 136.44 % of respective basal and 128.39 % of respective basal and 101.33 % of respective basal. For the same compound, the “DOPAC release, MEAN” value (T6 h 30-T7 h) was 101.08 % of respective basal, the “DOPAC release, individual animals” value (T6 h 30-T7 h) was 100.91 % of respective basal and 128.07 % of respective basal and 103.29 % of respective basal and 98.33 % of respective basal and 67.98 % of respective basal and the “DOPAC release, MEAN” value (T6 h-T6 h 30) was 97.93 % of respective basal. The “DOPAC release, individual animals” value (T6 h-T6 h 30) was 89.69 % of respective basal and 125.97 % of respective basal and 108.08 % of respective basal and 99.61 % of respective basal and 70.30 % of respective basal and 104.34 % of respective basal and 87.50 % of respective basal and the “DOPAC release, MEAN” value (T-30 min-T0 (before administration)) was 94.88 % of respective basal.
